SMILES strings stand for the structures.

This passage reports Drug uptake and IC50 results from ChEMBL document CHEMBL2384916, “Synthesis and in vitro evaluation of a PDT active BODIPY-NLS conjugate” (Bioorg Med Chem Lett, 2013).

Data set [1] is described as follows: Drug uptake in nucleus of human T24 cells at 100 nM after 30 mins by confocal microscopic analysis. As to conditions: t-24, 0.5 h, 0.1 µM; call rule not given here. Type of data set: ADME, cell-based.
A short description of data set [2]: Drug uptake in lysosome of human T24 cells at 100 nM after 30 mins by confocal microscopic analysis. Type of data set: ADME, cell-based. As to conditions: t-24, 0.5 h, 0.1 µM.
In data set [3] the test system is T-24. Kind of data set: Phototoxicity against human T24 cells assessed as growth inhibition incubated for 4 hrs followed by irradiation for 15 mins measured after 24 hrs by MTT assay. In kind it is functional, cell-based. To be noted: T-24, light or radiation study. (In general: Tetrazolium dyes change colour on reduction, which living cells bring about.)
Data set [4] concerns T-24. Description: Cytotoxicity against human T24 cells assessed as growth inhibition after 24 hrs by MTT assay in absence of light. Type of data set: cell-based. To be noted: T-24, 24 h.
Data set [5] in a line: Drug uptake in endoplasmic reticulum of human T24 cells at 100 nM after 30 mins by confocal microscopic analysis. Type of data set: ADME, cell-based. As to conditions: t-24, 0.5 h, 0.1 µM.

Regarding `CC1=C(I)C(C)=[N+]2C1=C(c1ccc(-c3cn(CC(=O)N4CCC[C@H]4C(=O)N[C@@H](CCCCN)C(=O)N[C@@H](CCCCN)C(=O)N[C@@H](CCCCN)C(=O)N[C@@H](CCCNC(=N)N)C(=O)N[C@@H](CCCCN)C(=O)N[C@H](C(N)=O)C(C)C)nn3)cc1)c1c(C)c(I)c(C)n1[B-]2(F)F`, the values for the Drug uptake entry in data set [1], in data set [2] and in data set [5] were “Not Active”, “Active” and “Active”, respectively. In addition, the IC50 in the data set with T-24 [3] was 16 nM; in the data set with T-24 [4], above 10000 nM.
As for `CC1=C(I)C(C)=[N+]2C1=C(c1ccc(-c3cn(CC(=O)OC(C)(C)C)nn3)cc1)c1c(C)c(I)c(C)n1[B-]2(F)F`, the Drug uptake result in data set [1] was “Not Active”; in data set [2], “Active”; in data set [5], “Not Active”. For the same compound, the IC50 with T-24 [3] was 42 nM; with T-24 [4] it was above 10000 nM.

In general, IC50 refers to the concentration that gives 50% inhibition.
